# Assay results as given in article PMC11762167, “G Protein-Coupled Receptor 17 Inhibits Glucagon-like Peptide-1 Secretion via a Gi/o-Dependent Mechanism in Enteroendocrine Cells” (Biomolecules, 2024).
# Read-outs that look alike come from different tables or passages of the source.
# How the values were obtained:
# hGPR17L [1] = target: T1, hGPR17L (Homo sapiens, UniProt Q13304); assay: Calcium flux (Calcium 6) in GLUTag cells expressing hGPR17L; assay type: cell-based; set-up: host or cells: GLUTag cells (murine enteroendocrine line), adenoviral transduction; Mean Diff. Ctl vs. hGPR17L: unit not given here; details: for Mean Diff.: hGPR17L; for Mean Diff. (Tukey's multiple comparisons test, Figure 4C): hGPR17L-WT
# T1 sequence (Q13304 whole entry): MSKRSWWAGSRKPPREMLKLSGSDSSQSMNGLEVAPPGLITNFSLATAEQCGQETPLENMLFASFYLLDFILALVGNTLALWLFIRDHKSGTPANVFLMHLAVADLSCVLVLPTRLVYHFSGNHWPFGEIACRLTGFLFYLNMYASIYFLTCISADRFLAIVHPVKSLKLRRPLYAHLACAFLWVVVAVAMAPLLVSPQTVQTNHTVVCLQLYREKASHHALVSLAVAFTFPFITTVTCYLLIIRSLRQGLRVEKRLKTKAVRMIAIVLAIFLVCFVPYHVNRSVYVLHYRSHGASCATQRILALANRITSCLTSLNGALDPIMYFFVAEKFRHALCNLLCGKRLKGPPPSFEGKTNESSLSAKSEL
# Procedure: GLUTag cells were maintained in Dulbecco’s Modified Eagle Medium (DMEM) supplemented with 10% fetal bovine serum and 1% penicillin–streptomycin in a humidified incubator at 37 °C and 5% CO2. For adenovirus transduction, GLUTag cells were seeded into poly-D-lysine coated 96-well plates or 4-chamber slides. The next day, cells were transduced with adenoviruses (100–1250 viral particles per cell at time of seeding) as indicated. After 24–30 h, adenovirus-containing media was changed to serum-free growth media for overnight serum starvation. The following day, GLUTag cells were used for cAMP or calcium signaling assays, GLP-1 secretion assays, or immunostaining and imaging.
# GLUTag cells were seeded into black, clear bottom, poly-D-lysine-coated 96-well plates. Cells were transduced and serum starved as specified above. Growth medium was then replaced with 100 μL/well assay buffer (HBSS, 20 mM HEPES, pH 7.4) and 100 μL/well Calcium 6 loading dye (R8190; Molecular Devices, San Jose, CA, USA). During dye loading, cells were incubated at 37 °C and 5% CO2 for 2 h. MDL29,951 or KCl was added to the wells and fluorescence (485 nm excitation, 525 nm emission, and 515 nm automatic emission cutoff) was measured using a Molecular Devices FlexStation3 (Molecular Devices) at 37 °C. For experiments with PTX, cells were pretreated with 100 ng/mL PTX overnight and 100 ng/mL PTX was included with Calcium 6 loading dye for calcium flux assays. For experiments with YM-254890, cells were pretreated for 30 min at 37 °C.
# hGPR17L [2] = target: T1, hGPR17L; assay: Live-cell GloSensor cAMP in GLUTag cells transfected with hGPR17L; assay type: cell-based; set-up: host or cells: GLUTag cells (murine enteroendocrine line), adenoviral transduction; details: MDL29,951 alone or together with forskolin
# Procedure: Live-cell, real-time cAMP measurements were performed using Promega (Madison, WI, USA) GloSensor cAMP luminescent biosensor technology. Glosensor cAMP experiments were conducted as previously described in GLUTag cells and HEK293 cells.
structure (smiles),measurement,setting,value
"O=C(O)CCc1c(C(=O)O)[nH]c2cc(Cl)cc(Cl)c12 [MDL29,951]",Mean Diff. Ctl vs. hGPR17L,"hGPR17L [1]; Figure 1B, Ctl vs. hGPR17L at log [MDL29,951] (M) -6.9",-0.31
same,Mean Diff. Ctl vs. hGPR17L,"hGPR17L [1]; Figure 1B, Ctl vs. hGPR17L at log [MDL29,951] (M) -7.4",-0.206
same,Mean Diff. Ctl vs. hGPR17L,"hGPR17L [1]; Figure 1B, Ctl vs. hGPR17L at log [MDL29,951] (M) -7.9",-0.06033
same,Mean Diff. Ctl vs. hGPR17L,"hGPR17L [1]; Figure 1B, Ctl vs. hGPR17L at log [MDL29,951] (M) -8.3",-0.009667
same,Mean Diff. Ctl vs. hGPR17L,"hGPR17L [1]; Figure 1B, Ctl vs. hGPR17L at log [MDL29,951] (M) -8.8",-0.002
same,Mean Diff.,"hGPR17L [1]; Figure 1B, log [MDL29,951] (M) -4.5 vs. Vehicle",0.758
same,Mean Diff.,"hGPR17L [1]; Figure 1B, log [MDL29,951] (M) -5.0 vs. Vehicle",0.6893
same,Mean Diff.,"hGPR17L [1]; Figure 1B, log [MDL29,951] (M) -5.5 vs. Vehicle",0.6163
same,Mean Diff.,"hGPR17L [1]; Figure 1B, log [MDL29,951] (M) -6.0 vs. Vehicle",0.538
same,Mean Diff.,"hGPR17L [1]; Figure 1B, log [MDL29,951] (M) -6.4 vs. Vehicle",0.47
same,Mean Diff.,"hGPR17L [1]; Figure 1B, log [MDL29,951] (M) -6.9 vs. Vehicle",0.3087
same,Mean Diff.,"hGPR17L [1]; Figure 1B, log [MDL29,951] (M) -7.4 vs. Vehicle",0.2053
same,Mean Diff.,"hGPR17L [1]; Figure 1B, log [MDL29,951] (M) -7.9 vs. Vehicle",0.06133
same,Mean Diff.,"hGPR17L [1]; Figure 1B, log [MDL29,951] (M) -8.3 vs. Vehicle",0.004667
same,Mean Diff.,"hGPR17L [1]; Figure 1B, log [MDL29,951] (M) -8.8 vs. Vehicle",-0.001667
same,"maximum peak ΔF/F, calcium flux","hGPR17L [1]; GLUTag hGPR17L, Figure 1B",0.80 ± 0.07
same,"pEC50, calcium flux","hGPR17L [1]; GLUTag hGPR17L, Figure 1B",6.66 ± 0.13
same,EC50,"hGPR17L [1]; GLUTag hGPR17L, Figure 1B, read-out: potency (EC50), calcium flux",220 nM
same,"shift in the EC50 of MDL29,951, calcium mobilization",hGPR17L [1]; PTX-treated versus vehicle-treated cells,3 fold
same,"Mean Diff. (Tukey's multiple comparisons test, Figure 4C)","hGPR17L [1]; log [MDL29,951] (M) -4.5 vs. Vehicle",100.4
same,"Mean Diff. (Tukey's multiple comparisons test, Figure 4C)","hGPR17L [1]; log [MDL29,951] (M) -5.0 vs. Vehicle",91.26
same,"Mean Diff. (Tukey's multiple comparisons test, Figure 4C)","hGPR17L [1]; log [MDL29,951] (M) -5.5 vs. Vehicle",81.52
same,"Mean Diff. (Tukey's multiple comparisons test, Figure 4C)","hGPR17L [1]; log [MDL29,951] (M) -6.0 vs. Vehicle",71.5
same,"Mean Diff. (Tukey's multiple comparisons test, Figure 4C)","hGPR17L [1]; log [MDL29,951] (M) -6.4 vs. Vehicle",61.96
same,"Mean Diff. (Tukey's multiple comparisons test, Figure 4C)","hGPR17L [1]; log [MDL29,951] (M) -6.9 vs. Vehicle",41.28
same,"Mean Diff. (Tukey's multiple comparisons test, Figure 4C)","hGPR17L [1]; log [MDL29,951] (M) -7.4 vs. Vehicle",27.22
same,"Mean Diff. (Tukey's multiple comparisons test, Figure 4C)","hGPR17L [1]; log [MDL29,951] (M) -7.9 vs. Vehicle",8.591
same,"Mean Diff. (Tukey's multiple comparisons test, Figure 4C)","hGPR17L [1]; log [MDL29,951] (M) -8.3 vs. Vehicle",0.737
same,"Mean Diff. (Tukey's multiple comparisons test, Figure 4C)","hGPR17L [1]; log [MDL29,951] (M) -8.8 vs. Vehicle",-0.2507
same,"pEC50, calcium mobilization","hGPR17L [1]; vehicle-treated cells, Figure 2C",6.34 ± 0.06
same,EC50,"hGPR17L [1]; vehicle-treated cells, Figure 2C, read-out: EC50, calcium mobilization",440 nM
same,"pattern of cAMP modulation, live-cell bioluminescent cAMP biosensor",hGPR17L [2],biphasic pattern
